The record followed here is patent publication US20240043448A1, “Small Molecule Inhibitors of KRAS G12C Mutant” (Merck Sharp & Dohme LLC, priority 2019, published 2024).

The target in experiment [1] is Biotinylated KRAS G12C protein (Homo sapiens (Human), UniProt P01116, C118S/C51S/C80L/G12C). In words: SOS-catalyzed nucleotide exchange assay (TR-FRET). It is filed as biochemical. As to conditions: in vitro apparent potency; preincubation time of 60 minutes prior to addition of SOS. The method, then:
The SOS-catalyzed nucleotide exchange assay utilizes a preformed complex of recombinant biotinylated KRAS protein containing G12C/C51S/C80L/C118S mutations (183 amino acids; biotin on K10; leader sequence which is an AviTag; referred to as SEQ ID NO: 1 or “Biotinylated KRAS G12C protein” hereafter), Bodipy-GDP, and Terbium-streptavidin. Compounds are added to this complex and then after incubation for 60 minutes, the mixture is treated with recombinant SOS protein and unlabeled GTP. Small molecule inhibitors stabilize the Bodipy-GDP complex whereas the untreated protein rapidly exchanges Bodipy-GDP for unlabeled GTP resulting in reduced TR-FRET signal.
Biotinylated KRAS G12C protein (SEQ ID NO: 1) is diluted to 2 μM in an EDTA buffer (20 mM HEPES, 150 mM sodium chloride, 10 mM EDTA, and 0.01% Tween) and incubated at room temperature for one hour. This mixture is then further diluted to 90 nM in an assay buffer (20 mM HEPES, 150 mM sodium chloride, 10 mM magnesium chloride, and 0.005% Tween) containing 15 nM of Terbium-Streptavidin (Invitrogen, catalog #PV3577) and 900 nM of Bodipy-GDP and incubated at room temperature for six hours. This solution is referred to as Biotinylated KRAS G12C mixture.
Each test compound (10 mM stock in DMSO) is diluted in DMSO to make a 10-point, 3-fold dilution series in a 384-well low dead volume microplate (Labcyte, catalog #LP-0200). Once titrations are made, 10 nL of the diluted compounds is acoustically dispensed into a 384-well plate (Corning, catalog #3820) using an Echo 550 (Labcyte).
Each well of the plate receives 3 μL Biotinylated KRAS G12C mixture that had been incubating for six hours and 3 μL of assay buffer using a BioRAPTR (Beckman Coulter) and is incubated at room temperature for 60 minutes. Each well then receives 3 μL of 240 nM recombinant human SOS protein and 9 mM GTP (Sigma, G8877) in assay buffer and is incubated at room temperature for 60 minutes.
The time-resolved fluorescence resonance energy transfer signal of the plate is measured on an Envision (PerkinElmer) plate reader: Excitation filter=340 nm; emission1=495 nm; emission2=520 nm; dichroic mirror=D400/D505; delay time=100 μs. The signal of each well is determined as the ratio of the emission at 520 nm to that at 495 nm. Percent effect of each well is determined after normalization to control wells containing DMSO (no effect) or a saturating concentration of inhibitor (max effect). The apparent effect as a function of compound concentration is fit to a four parameter logistic equation.
In general terms: In TR-FRET formats the signal depends on donor and acceptor labels being close together.

Experiment [2] has as its system phospho-ERK. The experiment can be described thus: Cellular phospho-ERK assay. The experiment is classed as cell-based. As to conditions: NCI-H358 cells, 2 hour incubation, ratio of p-Erk vs total Erk, read-out: IC50 (nM) pERK (Cell). Here is the method: NCI-H358 cells (ATCC® CRL-5807™) were cultured in T150 flask in growth medium (RPMI medium 1640-GlutaMAX™-I (ThermoFisher Scientific 61870) containing 10% fetal bovine serum (ThermoFisher Scientific 10091148)). The cells were harvested in growth medium after TrypLE (ThermoFisher scientific 12604021) digestion and were seeded in a 384-well collagen coated cell culture plate (Corning 356702) at a density of 15,000 cells/well, and incubated at 37° C., 5% CO2 overnight. The compound dose-response titrations were prepared and appropriate amounts of compounds were dispensed in a 384-well intermediate plate using an Echo 550 liquid handler. RPMI medium 1640-GlutaMAX™-I were added to the intermediate plate and transferred to 384-well cell culture plate, which was incubated at 37° C., 5% CO2 for 2 hours. After removal of medium from the plate, cells were lysed in lysis buffer from Alpha SureFire® Ultra™ Multiplex p-Erk and total Erk assay kit (PerkinElmer MPSU-PTERK) containing Halt™ Protease and Phosphotase inhibitor cocktail (ThermoFisher Scientific 78446) at room temperature with constant shaking at 300 rpm for 30 minutes. The cell lysates were then transferred to OptiPlate-384 plate (PerkinElmer 6005620) and the phosphorylation of Erk and total Erk levels were detected by Alpha SureFire Ultra Multiplex p-Erk kit (PerkinElmer MPSU-PTERK) following the manufacturer's protocol. Assay plates were read on an EnVision Multimode Plate Reader (PerkinElmer), and the ratio of p-Erk vs total Erk in each well was used as the final readout. Dose response curves were analyzed using a 4-parameter logistic model to calculate IC50 values using spotfire software.

The structures appear in SMILES notation. Read-outs that look alike come from different tables or passages of the source.

Chain of Biotinylated KRAS G12C protein (P01116 other isoform, or with tags, fused parts or gaps, stated change not applied): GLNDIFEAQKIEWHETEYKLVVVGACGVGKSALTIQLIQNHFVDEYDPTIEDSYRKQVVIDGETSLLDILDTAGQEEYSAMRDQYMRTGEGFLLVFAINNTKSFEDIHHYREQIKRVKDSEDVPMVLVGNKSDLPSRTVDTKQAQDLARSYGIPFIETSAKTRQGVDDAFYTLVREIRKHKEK

For orientation: IC50 means the concentration that gives 50% inhibition. Consider `C=CC(=O)N1C[C@H](C)N(c2nc(=O)n3c4nc(c(F)cc24)-c2cccc(O)c2OCCCc2ccnc(C(C)C)c2-3)C[C@H]1C` [Example 113, 2-[(2S,5R)-2,5-dimethyl-4-(prop-2-enoyl)piperazin-1-yl]-20-fluoro-14-hydroxy-6-(propan-2-yl)-11,12-dihydro-4H,10H-1,18-(ethanediylidene)pyrido[4,3-e]pyrimido[1,6-g][1,7,9]benzoxadiazacyclododecin-4-one], for which the figures for the IC50 in experiment [1] and in experiment [2] were 33 nM and 113 nM, respectively.

`C=CC(=O)N1CCN(c2nc(=O)n3c4nc(c(F)cc24)-c2c(F)cccc2OCCCc2ccnc(C(C)C)c2-3)C[C@@H]1CC` [Example 103, 2-[(3S)-3-ethyl-4-(prop-2-enoyl)piperazin-1-yl]-17,20-difluoro-6-(propan-2-yl)-11,12-dihydro-4H,10H-1,18-ethenopyrido[4,3-e]pyrimido[1,6-g][1,7,9] benzoxadiazacyclododecin-4-one]: the IC50 in experiment [1] came out at 107 nM; in experiment [2] (Homo sapiens, NCI-H358, 2 h) it was 847 nM.

As for `[2H]C1([2H])Oc2ccc(F)c(F)c2-c2nc3c(cc2F)c(N2C[C@@H](C)N(C(=O)C=C)C[C@@H]2C)nc(=O)n3-c2c(ccnc2C(C)C)OC1([2H])[2H]` [Example 64, 2-[(2S,5R)-2,5-Dimethyl-4-(prop-2-enoyl)piperazin-1-yl]-16,17,20-trifluoro-6-(propan-2-yl)-11,12-di[(^2H)hydro](11,12-^2H2)-4H-1,18-(ethanediylidene)pyrido [4,3-e]pyrimido[1,6-g][1,4,7,9] benzodioxadiazacyclo-dodecin-4-one], the IC50 in experiment [1] turned out to be 5.7 nM; in experiment [2] (Homo sapiens, NCI-H358, 2 h) it was 33 nM.

With `C=CC(=O)N1C[C@H](C)N(c2nc(=O)n3c4nc(c(F)cc24)-c2c(F)cccc2OCC2(CCc4ccnc(C(C)C)c4-3)CC2)C[C@H]1C` [Example 60, 2′-[(2S,5R)-2,5-dimethyl-4-(prop-2-enoyl)piperazin-1-yl]-18′,21′-difluoro-6′-(propan-2-yl)-10′,11′-dihydro-4′H,13′H-spiro[cyclopropane-1,12′-[14]oxa[3,5,7,20]tetraaza[1,19] (ethanediylidene)pyrido[4,3-f]pyrimido[1,6-h][1,8,10]benzoxadiazacyclotri-decin]-4′-one], the IC50 came to 1.5 nM in experiment [1] and 17 nM in experiment [2] (Homo sapiens, NCI-H358, 2 h).

For the compound `C=CC(=O)N1C[C@H](C)N(c2nc(=O)n3c4nc(c(F)cc24)-c2c(cc(F)c(F)c2F)OCCCc2ccnc(C(C)C)c2-3)C[C@H]1C` [Example 80, 2-[(2S,5R)-2,5-dimethyl-4-(prop-2-enoyl)piperazin-1-yl]-15,16,17,20-tetrafluoro-6-(propan-2-yl)-11,12-dihydro-4H,10H-1,18-ethenopyrido[4,3-d]pyrimido[1,6-g][1,7,9]benzoxadiazacyclododecin-4-one], the IC50 in experiment [1] is 2.6 nM; in experiment [2] (Homo sapiens, NCI-H358, 2 h), 54 nM.

On to `C=CC(=O)N1CCN(c2nc(=O)n3c4nc(c(F)cc24)-c2c(F)cccc2CCCOc2ccnc(C(C)C)c2-3)[C@@H](C)C1` (single isomer, unassigned) [Example 20a], for which the values for the IC50 in experiment [1] and in experiment [2] were 12 nM and 30 nM, respectively.

As to `C=CC(=O)N1CCN(c2nc(=O)n3c4nc(c(F)cc24)-c2c(ccc(F)c2F)OCC(F)(F)CCc2ccnc(C(C)C)c2-3)[C@@H](C)C1` [Example 97, 12,12,17,18,21-pentafluoro-2-[(2S)-2-methyl-4-(prop-2-enoyl)piperazin-1-yl]-6-(propan-2-yl)-10,11,12,13-tetrahydro-4H-1,19-(ethanediylidene)pyrido[4,3-f]pyrimido[1,6-h][1,8,10]benzoxadiazacyclotridecin-4-one], the IC50 was found to be 0.56 nM in experiment [1] and 3 nM in experiment [2].

For `C=CC(=O)N1CC(C)N(c2nc(=O)n3c4nc(c(F)cc24)-c2c(ccc(F)c2F)OCC(F)(F)CCc2ccnc(C(C)C)c2-3)CC1C` [Example 54, (5aRa,18aRa)-2-[(2S,5R)-2,5-dimethyl-4-(prop-2-enoyl)piperazin-1-yl]-12,12,17,18,21-pentafluoro-6-(propan-2-yl)-10,11,12,13-tetrahydro-4H-1,19-(ethanediylidene)pyrido[4,3-f]pyrimido[1,6-h][1,8,10]benzoxadiazacyclotridecin-4-one], the values for the IC50 in experiment [1] and in experiment [2] were 2.4 nM and 16 nM, respectively.

Take `C=CC(=O)N1CCN(c2nc(=O)n3c4nc(c(F)cc24)-c2cccnc2OCCCOc2ccnc(C(C)C)c2-3)[C@@H](C)C1` (single isomer, unassigned) [Example 2a]: the IC50 turned out to be 2680 nM in experiment [1] and 13900 nM in experiment [2] (Homo sapiens, NCI-H358, 2 h).

For `C=CC(=O)N1C[C@H](C)N(c2nc(=O)n3c4nc(c(C)cc24)-c2c(F)ccc(F)c2OCCCc2ccnc(C(C)C)c2-3)C[C@H]1C` (single isomer, unassigned) [Example 120], the results for the IC50 in experiment [1] and in experiment [2] were 4.3 nM and 11 nM, respectively.

For the compound `C=CC(=O)N1C[C@H](C)N(c2nc(=O)n3c4nc(c(Cl)cc24)-c2c(F)cccc2OCCCc2ccnc(C(C)C)c2-3)C[C@H]1C` [Example 63, 20-chloro-2-[(2S,5R)-2,5-dimethyl-4-(prop-2-enoyl)piperazin-1-yl]-17-fluoro-6-(propan-2-yl)-11,12-dihydro-4H,10H-1,18-(ethanediylidene)pyrido[4,3-e]pyrimido[1,6-g][1,7,9] benzoxadiazacyclodo-decin-4-one], the IC50 came out at 3.6 nM in experiment [1] and 2 nM in experiment [2] (Homo sapiens, NCI-H358, 2 h).

As to `C=CC(=O)N1CCN(c2nc(=O)n3c4nc(c(F)cc24)-c2c(F)cccc2CCOCCc2ccnc(C(C)C)c2-3)[C@@H](C)C1` [Example 17a, 18,21-difluoro-2-[(2S)-2-methyl-4-(prop-2-enoyl)piperazin-1-yl]-6-(propan-2-yl)-10,11,13,14-tetrahydro-4H-1,19-ethenopyrido[3,4-e]pyrimido[6,1-c][9,2,4]benzoxadiazacyclotridecin-4-one], the IC50 in experiment [1] turned out to be 11 nM; in experiment [2], 66 nM.

As for `C=C(C#N)C(=O)N1C[C@H](C)N(c2nc(=O)n3c4nc(c(Cl)cc24)-c2c(F)ccc(F)c2OCCCc2ccnc(C(C)C)c2-3)C[C@H]1C` [Example 121, 2-{(2R,5S)-4-[20-chloro-14,17-difluoro-4-oxo-6-(propan-2-yl)-11,12-dihydro-4H,10H-1,18-ethenopyrido[4,3-e]pyrimido[1,6-g][1,7,9]benzoxadiazacyclododecin-2-yl]-2,5-dimethylpiperazine-1-carbonyl}prop-2-enenitrile], the IC50 in experiment [1] is 195 nM; in experiment [2] it was more than 30000 nM.

On to `C=CC(=O)N1CC(C)N(c2nc(=O)n3c4nc(c(F)cc24)-c2c(F)ccc4cnn(c24)CCCCc2ccnc(C(C)C)c2-3)CC1C` [Example 107, 2-[(2S,5R)-2,5-dimethyl-4-(prop-2-enoyl)piperazin-1-yl]-19,22-difluoro-6-(propan-2-yl)-10,11,12,13-tetrahydro-4H-1,20-(ethanediylidene)pyrido[4′,3′:12,13]pyrimido[1′,6′:1,2][1,3,7]triazacyclotridecino[5,6,7-hi]indazol-4-one], for which the results for the IC50 in experiment [1] and in experiment [2] were 10 nM and 20 nM, respectively.
